Reference: paper PMC10501326, “A Phase I Study of the Pan-Notch Inhibitor CB-103 for Patients with Advanced Adenoid Cystic Carcinoma and Other Tumors” (Cancer Research Communications, 2023)
Values joined by “and” are separate entries in the source; they are usually repeats but may differ in a detail not shown here. Equal values may be shown once.

Columns and labels:
Format in all cases: in vivo, human
[1] = test system: IL7R alpha; assay: Peripheral whole blood Notch target gene expression (Nanostring); details: twice daily dosing, vs baseline
From the text: (§1) Archival tumor tissue (not older than 6 months prior to screening) or fresh tumor biopsy was required to characterize Notch alteration status by targeted genomic sequencing and/or NICD1 expression (via IHC) among the confirmatory cohort at baseline. Repeat biopsy on cycle 2 day 15 and at disease progression was optional. Serial whole blood samples (and/or bone marrow samples and saliva among patients with T-ALL/T-LBL) were obtained on day 1 of cycles 1–6 to evaluate the dynamics of Notch gene expression. Peripheral blood was collected with PaxGene tubes and frozen at −20°C until processing. RNA was extracted (Qiagen RNeasy Micro kit) from peripheral whole blood and analyzed by Nanostring with percent change in expression levels reported with respect to baseline normalized values.

[2] = test system: NOTCH1; assay: as above; details: twice daily dosing, vs baseline
From the text: as §1

[3] = test system: HEY1; assay: as above; details: twice daily dosing, vs baseline
From the text: as §1

[4] = test system: NOTCH 2; assay: as above; details: twice daily dosing, vs baseline
From the text: as §1

[5] = test system: NOTCH4; assay: as above; details: twice daily dosing, vs baseline
From the text: as §1

[6] = test system: advanced solid tumors, adenoid cystic carcinoma (ACC); assay: Antitumor efficacy and survival (RECIST v1.1 response, CBR, PFS, OS)
From the text: The study enrolled adults with histologically confirmed, locally advanced and/or metastatic solid tumors who had progressed on at least one line of prior systemic therapy (except for ACC) and relapsed/refractory T-ALL/LBL for whom no standard therapy was available. In dose escalation, participants with solid tumors with known or frequent Notch pathway–activating mutations were eligible (breast cancer, gastrointestinal tumors, hepatocellular carcinoma, osteosarcoma, malignant glomus tumor, and ACC), while the confirmatory cohort planned to enroll participants with selected tumor types (including T-ALL/LBL) and confirmed Notch pathway activation. Key eligibility criteria included patients ≥18 years of age with evaluable disease, Eastern Cooperative Oncology Group (ECOG) performance status 0–1, able to swallow capsules, and adequate organ function. Participants were excluded if they had clinically significant cardiac disease or thromboembolic events within the preceding 6 months, and drugs prolonging the QTc were avoided. A complete list of eligibility criteria is outlined in the Supplementary Materials and Methods.
Safety was assessed via monitoring of DLTs during the first treatment cycle, and of AEs, physical exam, and clinical lab results (hematology, coagulation, blood chemistry, urinalysis, and cardiac markers) throughout the study (Supplementary Table S1). 12-lead electrocardiograms and Holter safety monitoring with periodic cardiac imaging was employed. Efficacy assessments used RECIST v1.1 applied to CT/MRI scans performed at screening and every 8 weeks; or evaluated complete remission with complete hematologic recovery by National Comprehensive Cancer Network guideline criteria for T-ALL/T-LBL. Adherence to study drug administration was evaluated using both patient diaries and capsule counts.
The primary endpoint for dose escalation was the number of patients experiencing DLT during the first 28-day cycle of CB-103 and for the confirmatory phase, the incidence rate, severity, and relationship of AEs to CB-103. Secondary endpoints included assessment of clinical benefit rate [CBR; defined as achieving complete and/or partial response and/or stable disease (SD) at prespecified benchmarks], duration of response, progression-free survival (PFS) and overall survival (OS), and plasma pharmacokinetics.
The objective of the BLRM design ([10]) was to determine the MTD defined as the highest dose with less than 25% risk of the true DLT rate being above 33%. The MTD was considered reached if one of the following criteria was fulfilled: (i) if the posterior probability of the true DLT rate in the target interval (16%–33%) of the MTD was >50%, and (ii) at least 6 patients were treated at the MTD. Under this model, and accounting for dropouts and some additional patients enrolled to each cohort, approximately 55 patients were anticipated to enroll in dose escalation and approximately 45 patients in the confirmatory phase. Data were reported using 95% confidence intervals (CI) and survival endpoints (PFS, OS) are reported from the time of first treatment to the first of progression or death summarized by Kaplan–Meier estimates. All statistical analyses were analyzed using SAS v9.4 software.

[7] = individual patient, total dose 800 mg
[8] = individual patients, total dose 500 mg
[9] = individual patients, total dose 600 mg
[10] = individual patients, total dose 1000 mg
[11] = ACC confirmatory cohort (n = 12), 500 mg once daily
[12] = All solid tumor patients (n = 76)

In the case of `CC(C)(C)c1ccc(Oc2ccc(N)cn2)cc1` [CB-103], the “IL7R alpha percent change in peripheral expression” value (“IL7R alpha percent change” for short) [1, 7] is reported as -29.7%, the “IL7R alpha percent change” value [1, 8] is reported as 32.3% and 33.5% and the “IL7R alpha percent change” value [1, 9] is reported as 58.3% and -58.0% and -24.8% and -2.9% and -29.3%. The “IL7R alpha percent change” value [1, 10] was -53.6% and 3.5% and -16.2% and 0.2% and -41.7%, the “NOTCH1 percent change in peripheral expression” value (from here on “NOTCH1 percent change”) [2, 7] was -15.5% and the “NOTCH1 percent change” value [2, 8] was 39.2% and -7.1%. The “NOTCH1 percent change” value [2, 9] was -28.1% and -41.2% and -35.7% and -14.2% and -39.7%, the “NOTCH1 percent change” value [2, 10] was -8.7% and -0.1% and -58.3% and -20.2% and -13.3% and the “HEY1 percent change in peripheral expression” value (from here on “HEY1 percent change”) [3, 7] was 52.3%. The “HEY1 percent change” value [3, 8] was -52.0%, the “HEY1 percent change” value [3, 9] was 5.0% and -36.1% and 30.3% and -25.6% and the “HEY1 percent change” value [3, 10] was 11.7% and -71.3% and -75.9% and -55.2% and -57.8%. The “NOTCH 2 percent change in peripheral expression” value (“NOTCH 2 percent change” below) [4, 7] was -9.4%, the “NOTCH 2 percent change” value [4, 8] was 19.9% and -9.6% and the “NOTCH 2 percent change” value [4, 9] was -25.2% and -38.4% and -5.5% and -14.8% and -41.1%. For the same molecule, the “NOTCH 2 percent change” value [4, 10] was -31.8% and -14.2% and -39.3% and -15.2% and 5.1%, the “NOTCH4 percent change in peripheral expression” value (from here on “NOTCH4 percent change”) [5, 7] was -3.5% and the “NOTCH4 percent change” value [5, 8] was 37.6% and -16.9%. The “NOTCH4 percent change” value [5, 9] was 34.0% and -49.7% and -7.9% and 11.5% and 32.9%, the “NOTCH4 percent change” value [5, 10] was -20.8% and -40.4% and 22.0% and 4.5% and 29.7% and the “3-month PFS (95% CI)” value [6, 11] was 10.9 (0.6–38.0). For the same molecule, the “Best overall response: Complete response” value [6, 11] was 0 n, %, the “Best overall response: Partial response” value [6, 11] was 0 n, % and the “Best overall response: Progressive disease” value [6, 11] was 7 (58) n, %. For the same molecule, the “Best overall response: Stable disease” value [6, 11] was 3 (25) n, %, the “Best overall response: Unevaluable” value [6, 11] was 2 (17) n, % and the “Clinical benefit rate, 3 months (95% CI)” value [6, 11] was 25.0 (5.5–57.2) — — %. For the same molecule, the “Median OS (95% CI)” value [6, 11] was 5.4 (1.3–5.4) months, the “Median PFS (95% CI)” value [6, 11] was 1.4 (0.8–2.3) months and the “Overall survival: No. of deaths” value [6, 11] was 4 (33) n, %. The “Progression-free survival: No. of events” value [6, 11] was 10 (83) n, %, the “3-month PFS (95% CI)” value ([6]; All patients with ACC (n = 40)) was 46.8 (30.4–61.7) and the “6-month OS (95% CI)” value ([6]; All patients with ACC (n = 40)) was 72.4 (53.1–84.8) %. The “6-month PFS (95% CI)” value ([6]; All patients with ACC (n = 40)) was 18.6 (7.9–32.8) %, the “9-month PFS (95% CI)” value ([6]; All patients with ACC (n = 40)) was 6.2 (1.1–17.8) and the “12-month OS (95% CI)” value ([6]; All patients with ACC (n = 40)) was 57.3 (37.5–73.0) %. For the same molecule, the “12-month PFS (95% CI)” value ([6]; All patients with ACC (n = 40)) was 6.2 (1.1–17.8), the “Best overall response: Complete response” value ([6]; All patients with ACC (n = 40)) was 0 n, % and the “Best overall response: Partial response” value ([6]; All patients with ACC (n = 40)) was 0 n, %. For the same molecule, the “Best overall response: Progressive disease” value ([6]; All patients with ACC (n = 40)) was 13 (33) n, %, the “Best overall response: Stable disease” value ([6]; All patients with ACC (n = 40)) was 23 n, % and 23 (58%) n, % and 23 (58) n, % and the “Best overall response: Unevaluable” value ([6]; All patients with ACC (n = 40)) was 4 (10) n, %. The “Clinical benefit rate, 3 months (95% CI)” value ([6]; All patients with ACC (n = 40)) was 57.5 (40.9–73.0) %, the “Clinical benefit rate, 6 months (95% CI)” value ([6]; All patients with ACC (n = 40)) was 27.5 (14.6–43.9) % and the “Clinical benefit rate, 9 months (95% CI)” value ([6]; All patients with ACC (n = 40)) was 2.5 (0.1–13.2) %. The “Median OS (95% CI)” value ([6]; All patients with ACC (n = 40)) was 18.4 months, the “Median PFS (95% CI)” value ([6]; All patients with ACC (n = 40)) was 2.5 (1.5–3.7) months and the “Overall survival: No. of deaths” value ([6]; All patients with ACC (n = 40)) was 15 (38) n, %. The “Progression-free survival: No. of events” value ([6]; All patients with ACC (n = 40)) was 35 (88) n, %, the “3-month PFS (95% CI)” value [6, 12] was 38.7 (26.5–50.6) and the “6-month OS (95% CI)” value [6, 12] was 68.4 (54.4–78.9) %. The “6-month PFS (95% CI)” value [6, 12] was 15.5 (7.5–26.0) %, the “9-month PFS (95% CI)” value [6, 12] was 5.8 (1.7–14.3) and the “12-month OS (95% CI)” value [6, 12] was 41.6 (28.0–54.7) %. For the same molecule, the “12-month PFS (95% CI)” value [6, 12] was 3.9 (0.7–11.6), the “Best overall response: Complete response” value [6, 12] was 0 n, % and the “Best overall response: Partial response” value [6, 12] was 0 n, %. For the same molecule, the “Best overall response: Progressive disease” value [6, 12] was 29 (38) n, %, the “Best overall response: Stable disease” value [6, 12] was 37 (49%) n, % and 37 (49) n, % and the “Best overall response: Unevaluable” value [6, 12] was 10 (13) n, %. For the same molecule, the “Clinical benefit rate, 3 months (95% CI)” value [6, 12] was 48.7 (37.0–60.4) %, the “Clinical benefit rate, 6 months (95% CI)” value [6, 12] was 15.8 (8.4–26.0) % and the “Clinical benefit rate, 9 months (95% CI)” value [6, 12] was 1.3 (0.0–7.1) %. The “Median OS (95% CI)” value [6, 12] was 9.2 (6.3–18.4) months, the “Median PFS (95% CI)” value [6, 12] was 1.9 (1.4–3.2) months and the “Overall survival: No. of deaths” value [6, 12] was 33 (43%) n, % and 33 (43) n, %. For the same molecule, the “Progression-free survival: No. of events” value [6, 12] was 59 (78) n, %, the Objective responses ([6]; all 76 solid tumor patients) was “no objective responses” and the “Duration of stable disease on study” value ([6]; case: locoregionally recurrent ACC, NOTCH-activating mutation present) was 3 months. For the same molecule, the “Tumor regression in right parapharyngeal mass” value ([6]; case: locoregionally recurrent ACC, NOTCH-activating mutation present (30 to 25 mm)) was −17%, the “Tumor regression in dominant liver lesion” value ([6]; case: patient with metastatic ACC with rapid progression prior to study entry (26.1–19.4 mm)) was −25.7% and the “Duration of stable disease on study” value ([6]; case: patient with metastatic ACC, dominant liver lesion) was 8 months. For the same molecule, the “Median OS” value ([6]; heavily pretreated ACC cohort) was “under 2 years”, the “Duration of SD” value ([6]; one patient, NOTCH1-activated metastatic ACC with tumor BCL2 overexpression, 250 mg twice daily) was 3 months and the “ACC patients exhibiting SD” value ([6]; patients with ACC (n = 40)) was 58%.
